Format in all cases: physicochemical
Data set [1] in a line: Tap density of mesalamine powder by USP tapped density test <616>. Conditions: for TD (measured tapped density): individual mesalamine lot used in combination, Table 10; for Mesalamine Tap Density: mesalamine lot used for the molten mixture, Table 9; for Tapped Density: mesalamine powder lot, Table 8. On the procedure:
Unless otherwise specified, tap density is measured by the USP tapped density test <616>.
The individual tap densities of each mesalamine lot were used to calculate a composite tapped density (CTD) based on the amount of each lot. The calculated CTD can be expressed by the following equation: (CDF)i+(CDF)2 + . . . (CDF)n=CTD where CTD=composite tapped density: CDF=contributed density factor=% of total drug used/100×TD; TD=measured tapped density; and n=number of drug lots used.

Data set [2] in a line: Viscosity of molten mixture of mesalamine and hard fat. Conditions: in-process molten mixture of mesalamine and hard fat. On the procedure:
Molten mixtures were prepared by the procedure described in Example 1 using mesalamine lots A, B, and E, The molten mixtures had the viscosities reported in Table 9 below.
The in-process molten mixtures of mesalamine and hard fat used in the preparation of the suppositories described above with respect to FIGS. 4 to 6 had the viscosities reported in Table 12 below. Suppositories could not be made from Grades C and D from supplier 2.

Test in data set [3]: as above
Conditions: molten mixture prepared from the mesalamine lot, Table 11.

As to `Nc1ccc(O)c(C(=O)O)c1` [Mesalamine Lot E, mesalamine], in data set [1] (listed as E), the “TD (measured tapped density)” value was 0.68 g/mL, the “Mesalamine Tap Density” value is 0.68 g/mL and the “Tapped Density” value is 0.68 g/mL.

Regarding `Nc1ccc(O)c(C(=O)O)c1` [Supplier 2, grade A, mesalamine], the “Dispersion Viscosity” value amounted to 595 Cps in data set [2] (Drug Load 33% w/w), 1084 Cps in data set [2] (Drug Load 37% w/w) and 2553 Cps in data set [2] (Drug Load 42% w/w).

`Nc1ccc(O)c(C(=O)O)c1` [Mesalamine Lot No. 7, mesalamine]: the “Tap Density” value in data set [1] (mesalamine lot nos. 1-8, Table 11, listed as 7) came out at 0.36 g/mL. For the same compound, in data set [3] (listed as 7), the Viscosity was found to be 37830 cps.

As to `Nc1ccc(O)c(C(=O)O)c1` [Mesalamine Lot D, mesalamine], in data set [1] (listed as D), the “TD (measured tapped density)” value is 0.37 g/mL and the “Tapped Density” value came out at 0.39 g/mL.

Take `Nc1ccc(O)c(C(=O)O)c1` [Supplier 2, grade D, mesalamine]: in data set [2] (Drug Load 33% w/w), the “Dispersion Viscosity” value is recorded as “Poor”.

As to `Nc1ccc(O)c(C(=O)O)c1` [Mesalamine Lot No. 8, mesalamine], the “Tap Density” value in data set [1] (mesalamine lot nos. 1-8, Table 11, listed as 8) was 0.37 g/mL. In data set [3] (listed as 8), the Viscosity came to 33735 cps.

Consider `Nc1ccc(O)c(C(=O)O)c1` [Mesalamine Lot G, mesalamine], for which, in data set [1] (listed as G), the “TD (measured tapped density)” value was found to be 0.60 g/mL and the “Tapped Density” value was found to be 0.60 g/mL.

With `Nc1ccc(O)c(C(=O)O)c1` [Supplier 2, grade B, mesalamine], the “Dispersion Viscosity” value in data set [2] (Drug Load 33% w/w) came out at 515 Cps; in data set [2] (Drug Load 37% w/w) it was 845 Cps; in data set [2] (Drug Load 42% w/w), 1911 Cps.

`Nc1ccc(O)c(C(=O)O)c1` [Mesalamine Lot B, mesalamine]: in data set [1] (listed as B), the “Mesalamine Tap Density” value amounted to 0.72 g/mL and the “Tapped Density” value is 0.72 g/mL.

On to `Nc1ccc(O)c(C(=O)O)c1` [Mesalamine Lot F, mesalamine], for which, in data set [1] (listed as F), the “TD (measured tapped density)” value was 0.46 g/mL and the “Tapped Density” value worked out at 0.46 g/mL.

For `Nc1ccc(O)c(C(=O)O)c1` [Supplier 2, grade C, mesalamine], in data set [1] (mesalamine by source, Table 12), the “Tap Density” value was 0.00058 g/mL. Besides, the “Dispersion Viscosity” value in data set [2] (Drug Load 33% w/w) was “Too Viscous”.

`Nc1ccc(O)c(C(=O)O)c1` [Mesalamine Lot A, mesalamine]: in data set [1] (listed as A), the “Mesalamine Tap Density” value stood at 0.81 g/mL and the “Tapped Density” value turned out to be 0.81 g/mL.

`Nc1ccc(O)c(C(=O)O)c1` [Supplier 1, mesalamine]: the “Dispersion Viscosity” value in data set [2] (Drug Load 33% w/w) was found to be 694 Cps; in data set [2] (Drug Load 37% w/w), 1131 Cps; in data set [2] (Drug Load 42% w/w), 2512 Cps.

`Nc1ccc(O)c(C(=O)O)c1` [Mesalamine Lot C, mesalamine]: in data set [1] (listed as C), the “TD (measured tapped density)” value is 0.68 g/mL and the “Tapped Density” value worked out at 0.68 g/mL.

The record behind these values is patent publication US9884018B2, “Mesalamine suppository” (Aptalis Pharma Canada Inc., priority 2007, dated 2018).
